In patent US10759762B2, “Fluorescent synthetic retinoids” (High Force Research Limited, priority 2014, dated 2020):

Tests used:
TERA-2 cells [1] = assay: Immunocytochemical staining for nestin; format: cell-based
TERA-2 cells [2] = assay: Immunocytochemical staining for cytokeratin 8 (CK8); format: cell-based; conditions: 10 μM vs 1 μM
TERA-2 cells [3] = assay: Immunocytochemical staining for TUJ-1; format: cell-based; conditions: for TUJ-1 staining: 1 and 10 μM
Excerpt: DMSO treated cells show only limited TUJ-1 staining.

TERA-2 cells [4] = assay: Immunocytochemical staining for Oct 4; format: cell-based
TERA-2 cells [5] = assay: Immunocytochemical staining for Sox 2; format: cell-based; conditions: 1 and 10 μM
TERA-2 cells [6] = assay: Flow cytometry, stem cell marker SSEA-3; format: cell-based; conditions: for expression of SSEA-3 compared to DMSO treated cells: flow cytometry
TERA-2 cells [7] = assay: Flow cytometry, stem cell marker TRA160; format: cell-based; conditions: for expression of TRA160 compared to DMSO treated cells: flow cytometry
TERA-2 cells [8] = assay: Flow cytometry, early neuronal marker A2B5; format: cell-based
Excerpt: ATRA treated cells express higher levels of A2B5 followed by EC23® and compound 9.

cell populations = assay: Phase contrast images of treated cell populations; format: cell-based
Excerpt: In cell populations treated with DMSO, the cells are small, and densely packed together.

cells = assay: MTT cell viability analysis; format: cell-based; conditions: compared to DMSO
[9] = background statement; cited from earlier work
[10] = background statement; cited from earlier work; remark: listed apart in the source
[11] = Light stability of compound 9 by 1H NMR under standard laboratory light; format: physicochemical
Experimental: A ^1H NMR spectrum of compound 9 in DMSO-d6 was recorded after storage at ambient temperature in the absence of light (FIG. 7). The same sample of compound 9 was then exposed to standard laboratory light at a distance of 30 cm for 72 hours, and the ^1H NMR spectrum recorded (FIG. 8). Compound 9 is stable towards typical laboratory lighting over this time period, although a small proportion converts to a structurally similar enamine form. Compound 9 remains stable until around 16 day's exposure, where some indication of degradation becomes apparent. More significant degradation is observed after 22 day's exposure, although compound 9 still represents the major constituent of the sample (>60%).

[12] = Initial fluorescence characterisation (absorption and emission spectra in solvents); format: physicochemical
Excerpt: Absorption and emission spectra of 9 were obtained in a variety of solvents (FIG. 3 and FIG. 4). […] The fluorescence emission wavelength is also highly dependent on solvent polarity, with a significant red shift occurring in polar solvents when compared to non polar solvents.
This absorption band peaks at around 379 nm, and trails into the indigo/blue (440 nm).

[13] = Stability on exposure to light of wavelength 300 to 400 nm; format: physicochemical; conditions: 3 days exposure to light of wavelength 300 to 400 nm
Excerpt: Retinoid compounds such as ATRA are unstable upon storage. In particular, such compounds are susceptible to photoisomerisation and degradation upon exposure to light in the 300 to 400 nm region. […] Generally the compounds of formula 1 have far better stability than retinoids such as ATRA, in particular the compounds of formula 1 are far less susceptible to photoisomerisation. Generally, following 3 days exposure to light having a wavelength of 300 to 400 nm, the compounds of the present invention undergo far less isomerisation and degradation than ATRA. Typically at least 60% by weight of the compounds of the present invention remain (compared to less than 40% by weight ATRA) following 3 days exposure to light of wavelength 300 to 400 nm.

[14] = 1 M treatment (so in the source)
[15] = both 1 and 10 M treatments (so in the source)

Row | Compound | nestin staining (TERA-2 cells [1]; 10 μM treatment) | nestin staining (TERA-2 cells [1]; [14]) | CK8 staining intensity in 10 μM samples compared with 1 μM samples (TERA-2 cells [2]) | TUJ-1 staining with 10 μM treatment relative to 1 μM (TERA-2 cells [3]) | TUJ-1 staining (TERA-2 cells [3]) | Oct 4 staining (TERA-2 cells [4]; 1 μM) | Oct 4 staining (TERA-2 cells [4]; 10 μM) | Sox 2 staining compared to DMSO treated cells (TERA-2 cells [5]) | expression of SSEA-3 compared to DMSO treated cells (TERA-2 cells [6]) | expression of TRA160 compared to DMSO treated cells (TERA-2 cells [7]) | expression of A2B5 compared to DMSO treated cells (TERA-2 cells [8]) | cell population appearance in contrast to DMSO (small, densely packed) (cell populations) | MTT cell viability (cells; 1 μM treatment) | MTT cell viability (cells; 10 μM treatment) | stability on exposure to light [9] | also measured
1 | CC1(C)CCC(C)(C)c2cc(C#Cc3ccc(C(=O)O)cc3)ccc21 [EC23®] | positive for nestin with staining possibly to a lesser extent | positive for nestin | less intense | increased staining | significant staining | do not exhibit staining | do not exhibit staining | significantly reduced staining | significantly decreased | significantly decreased | significantly increased | less dense, and cells are much more spread out | comparable viability to DMSO | comparable viability to DMSO | good stability | susceptibility to metabolic degradation [10]: not be susceptible
2 | CC(C)N1CCC(C)(C)c2cc(C#Cc3ccc(C(=O)O)cc3)ccc21 [compound 9, 4-2-[4,4-Dimethyl-1-(propan-2-yl)-1,2,3,4-tetrahydroquinolin-6-yl]ethynylbenzoic acid] | positive for nestin with staining possibly to a lesser extent | positive for nestin | slightly brighter | increased staining | significant staining | do not exhibit staining | do not exhibit staining | significantly reduced staining | significantly decreased | significantly decreased | significantly increased | less dense, and cells are much more spread out | comparable viability to DMSO | comparable viability to DMSO |  | exposure time until which compound remains stable (first indication of degradation) ([11]; DMSO-d6, standard laboratory light): around 16 day; stability towards typical laboratory lighting ([11]; DMSO-d6, standard laboratory light at 30 cm, 72 hours, ambient temperature): stable; share of the sample still compound 9 (major constituent) ([11]; after 22 day's exposure to laboratory light): > 60%; level of SSEA-3 relative to ATRA and EC23 (TERA-2 cells [6]; [15]): higher levels; level of TRA160 relative to ATRA and EC23 (TERA-2 cells [7]; [15]): slightly higher levels; lowest concentration at which fluorescence was easily detected ([12]; in solvents): 1 nM
3 | CC1=C(/C=C/C(C)=C/C=C/C(C)=C/C(=O)O)C(C)(C)CCC1 [ATRA, All Trans-Retinoic Acid] | positive for nestin | positive for nestin | less intense | increased staining | significant staining | staining is also evident | do not exhibit staining | significantly reduced staining | significantly decreased | significantly decreased | significantly increased | less dense, and cells are much more spread out | comparable viability to DMSO | comparable viability to DMSO | poor stability | amount of compound remaining [13]: less than 40 % by weight; level of A2B5 relative to the other retinoids (TERA-2 cells [8]): higher levels
4 | CC1=CC(C)(C)c2cc(C#Cc3ccc(C(=O)O)cc3)ccc2N1C(C)C [compound 17, 4-2-[2,4,4-Trimethyl-1-(propan-2-yl)-1,4-dihydroquinolin-6-yl]ethynyl benzoic acid] |  |  |  |  |  |  |  |  |  |  |  |  |  |  |  | peak of maximal absorption band ([12]; chloroform (FIG. 5)): around 379 nm
